Results reported in the METLIN SMRT retention time set (Domingo-Almenara et al. 2019).

Experiment: gradient 5% acetonitrile 3 min, to 50% in 2 min, to 85% in 15 min, held 3 min, 100 µL/min
Details: column: Zorbax Extend-C18 2.1 x 50 mm; eluents: water / acetonitrile, 0.1% formic acid
Outline: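 Each retention time is based on an adduct peak selected computationally and verified by manual inspection. Measurements used HPLC–quadrupole time-of-flight mass spectrometry in positive and negative ionization mode on mixtures of ~100 pure standards. Chromatography ran on a Zorbax Extend-C18 column (2.1 × 50 mm, 1.8 μm) at 100 μL/min with water and acetonitrile, each containing 0.1% formic acid, and dead and dwell volumes of 40 μL and 900 μL.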

Row | Structure (SMILES) | RP-LC retention time [s]
1 | CCOC(=O)c1ccccc1NC(=O)N1CCSc2nc(C)cc(C)c21 | 1000
2 | CNC(=O)C1CCCN(c2nc3ncn(CC(=O)Nc4ccccc4C)c(=O)c3s2)C1 (stereo not given) | 628
3 | CCOc1ccc(S(=O)(=O)N2CCC(C(=O)N3CCN(C)CC3)CC2)cc1 | 569
4 | CCCN1C(=O)c2ccccc2Sc2cc(-c3noc(C(C)NC(=O)c4ccco4)n3)ccc21 (stereo not given) | 984
5 | CCCN(C)C(=O)CCc1cc2cc(OC)ccc2[nH]c1=O | 675
6 | O=C(CN1CCN(Cc2ccccc2)C1=O)N1CCN(C2CCCCC2)CC1 | 601
7 | COc1cc(C(=O)N(C)CCc2noc(C3CCCCC3)n2)cc(OC)c1OC | 814
8 | COc1ccc(-c2nc3cnccn3c2Nc2ccc(C(=O)NCCN(C)C)cc2)cc1 | 586
9 | Cc1ccc(-n2c(N3CCCC(C(=O)Nc4ccc(F)cc4)C3)nc3ccsc3c2=O)cc1 (stereo not given) | 959
10 | CCCCCn1c(=O)c2ccccc2n(Cc2nc(-c3ccccc3OC)no2)c1=O | 1130
11 | Cc1cccc(-c2nc(-c3ccc(-n4cccn4)nc3)no2)c1 | 1330
12 | CCc1noc(NC(C)=O)c1-c1ccc(OC)c(S(=O)(=O)Nc2ccc(OC)c(OC)c2)c1 | 688
13 | CC(C)NC(=O)N1CCCC(c2cccc(C(=O)NCc3ccccc3F)c2)C1 (stereo not given) | 854
14 | O=C(CSc1nc2ccccc2nc1SCC(=O)N1CCCC1)N1CCCC1 | 743
15 | Cn1c(=O)c(N2CCC(NC(=O)Nc3ccc(Br)cc3)CC2)nc2ccccc21 | 977
16 | CCN(CC)C(=O)[C@@H]1[C@H](c2cc(OC)c(OC)c(OC)c2)c2cc3c(cc2[C@H](O)[C@H]1CO)OCO3 | 679
17 | COc1cc(CNC(=O)C23CCC=C2N(C2CCCC2)C(=O)CC3)cc(OC)c1 (stereo not given) | 752
18 | CCC(C)NC(=O)CCCn1c(=O)c2cccn2c2ccc(Br)cc21 (stereo not given) | 894
19 | COc1cccc(N2CCN(C(=O)C3CCN(C(=O)C4Sc5ccccc5NC4=O)CC3)CC2)c1 (stereo not given) | 709
20 | Cc1nc(N(C)C(=O)Cc2ccc(-c3ccccn3)cc2)sc1S(N)(=O)=O | 699
21 | O=S1(=O)C[C@H](N2CCN(c3ncccn3)CC2)[C@@H](S(=O)(=O)c2ccc(F)cc2)C1 | 772
22 | COc1ccc(C(=O)N2CCC3(CC2)N=C(c2cccc(Br)c2)NO3)c(OC)c1 | 832

Row | Structure (SMILES) | RP-LC retention time [s]
23 | COc1ccc(-c2nnc(-c3cccnc3N3CCN(c4ccc(C)cc4)CC3)o2)cc1 | 1060
24 | O=C(c1cccnc1)N1CCN(c2ccccc2Cl)CC1 | 826
25 | N#Cc1ccsc1NC(=O)NC(c1ccccc1)c1ccccc1 | 947
26 | CCOc1ccc(CNC(=O)CCc2c(-c3ccc(Br)cc3)nc3ccccn23)cc1 | 717
27 | CCn1cc(-c2ccnc3[nH]c(-c4cccc(CN(C)C)c4)cc23)c(-c2ccc(NC(=O)N(C)C)cc2)n1 | 632
28 | CCC(=O)N1CCCN(C2=NS(=O)(=O)C(c3ccccc3)=C2C)CC1 | 694
29 | O=C(NCc1csc(-c2ccccc2)n1)[C@H]1CCCN1C(=O)c1cccc(Br)c1 | 889
30 | Cc1nn(C)cc1CN(C)C(=O)CCC1CCCN(c2cc(NC3CC3)ncn2)C1 (stereo not given) | 597
31 | O=C1c2ccccc2C(=O)N1CCCCN(C(=O)c1cccs1)c1ccc(F)cc1F | 951
32 | CCC(C)NC(=O)c1nccnc1NC(=O)c1ccccc1 (stereo not given) | 899
33 | COCCNCc1ccc(-c2cccc(C(F)(F)F)c2)o1 | 662
34 | O=C(NCCCN1CCCC1)c1ccc2ccnc(N3CCN(c4ccc(Cl)cc4)CC3)c2c1 | 639
35 | O=C(NCc1cccnc1)c1cc(N2CCCC2)n2nccc2n1 | 534
36 | CCc1ccc(N2CC(c3noc(-c4cccs4)n3)CC2=O)cc1 (stereo not given) | 1010
37 | COc1ccc(OC)c(CNC(=O)C2CCN(S(=O)(=O)c3cn(C)cn3)CC2)c1 | 663
38 | C=CCNC(=O)N1CCCN(C2=NS(=O)(=O)C(c3ccc(CC)cc3)=C2C)CC1 | 790
39 | CC(C)Oc1ccc(CNC(=O)C2CCCN(c3nn4c(=O)c5c(nc4s3)CCCC5)C2)cc1 (stereo not given) | 844
40 | COc1ccc(NC(=O)N2C[C@@H](F)C[C@H]2C(=O)N2CCCCC2)cc1F | 660
41 | CCCC(=O)Nc1ccc2nc(N3CCN(c4cccc(C)c4C)CC3)cc(C(=O)O)c2c1 | 732
42 | CCc1nc2cc(N3CCCC(C(=O)NCCOC)C3)cnc2nc1CC (stereo not given) | 662
43 | O=C(c1ccc(-c2cccs2)nc1)N1CCOCC1 | 678
44 | COc1cccc(C(=O)N2CCC3(CC2)NC(=O)c2cccc(Cl)c2N3)c1 | 749

Row | Structure (SMILES) | RP-LC retention time [s]
45 | O=c1c(S(=O)(=O)N2CCCCCC2)cccn1Cc1ccccc1F | 941
46 | Cc1nn(CC(=O)N2CCN(c3ccccn3)CC2)c(=O)c2c1sc1ccccc12 | 640
47 | CCOC(=O)c1cccc(Nc2c(-c3ccc(OC)c(OC)c3)nc3cnccn23)c1 | 811
48 | O=C(C1CCOCC1)N1CCC(Oc2nccnc2N2CCOCC2)C1 (stereo not given) | 598
49 | Cc1ccc(C(=O)N2CC(c3nc(CCOCC4CC4)no3)C2)s1 | 806
50 | CCc1ccc(C2=C(C)C(N3CCCN(C(=O)NCC(C)C)CC3)=NS2(=O)=O)cc1 | 842
51 | Cc1[nH]c(-c2ccc(F)cc2)cc1C(=O)N1CC=C(c2ccccc2)CC1 | 1030
52 | CS(=O)(=O)NCCc1ccc(CC2CCNCC2)cc1 | 588
53 | Cc1ccc(-c2nnc3ccc(SCC(=O)OCc4ccccc4)nn23)cc1 | 840
54 | CCN1C(=O)CCc2cc(NS(=O)(=O)Cc3cccc(Cl)c3)ccc21 | 846
55 | COc1cccc(CNC(=O)Cn2c(C)nc3onc(C)c3c2=O)c1 | 727
56 | Cc1ccccc1NC(=O)N1C[C@@H]2C[C@H](NC(=O)c3cccs3)[C@H]1C2 | 706
57 | COc1ccc(C(F)(F)F)cc1NC(=O)C1CCCN(c2ccc(-n3ccnc3)nn2)C1 (stereo not given) | 609
58 | CC(=O)N1CCc2cc(N3CC(C(=O)Nc4ccc(Cl)cc4)CC3=O)ccc21 (stereo not given) | 750
59 | CSc1ccc(CNC(=O)C2CCCN(c3nc4c(s3)c(C)nn4-c3ccc(F)cc3)C2)cc1 (stereo not given) | 1190
60 | CCN(c1ccccc1)S(=O)(=O)c1ccc2c(c1)N(C(C)=O)CCCS2 | 937
61 | O=C(Cc1ccc(NC(=O)C2COc3ccccc3O2)cc1)NCC(F)(F)F (stereo not given) | 576
62 | COc1ccc(C2CC(=O)N(c3ccc(C(C)C)cc3)C(=O)C2)cc1 | 1030
63 | CCCc1noc(-c2ccc3nnc(CC(=O)Nc4ccccc4F)n3c2)n1 | 872
64 | CCSc1ccccc1C(=O)NCC1(c2ccccc2OC)CCOCC1 | 843
65 | Cc1nc2cc(-c3noc(Cc4cccc(C(F)(F)F)c4)n3)ccc2o1 | 1080
